Laboratory results from patent publication US6919380B2, “Derivatives of C2-substituted indan-1-ol systems for the prophylaxis or treatment of obesity” (Aventis Pharma Deutschland GmbH., priority 2001, dated 2005).

How the values were obtained:
female NMRI mice = test: Anorectic action: cumulative evaporated milk consumption after removal of feed for 24 hours; type: in vivo, mouse; details: dose 10 mg/kg (ip or po, not specified)
Experimental: The activity of the compounds of the formula I was assayed as follows: […]
The anorectic action was tested on female NMRI mice. After removal of feed for 24 hours, the preparation to be tested was administered intraperitoneally (ip) or by gavage (po). The animals were housed singly and, with free access to drinking water, they were offered evaporated milk 30 minutes after administration of the preparation. The consumption of evaporated milk was determined and the general behavior of the animals was monitored every half an hour for 7 hours. The measured milk consumption was compared to that of vehicle-treated control animals.

In the case of `CC(=O)OC1c2ccc(Cl)cc2CC1S(C)(=O)=O` (stereo not drawn) [Example 1, 1-Acetoxy-5-chloro-2-methylsulfonylindane], the melting point is reported as 136 °C, the “Reduction in cumulative milk consumption as % of the control” value (female NMRI mice; compared with control animals) is reported as 81% and the “cumulative milk consumption by treated animals” value (female NMRI mice; milk offered 30 minutes after administration, monitored for 7 hours) is reported as 5/0.28 ml.
